Assay results published in PubChem BioAssay AID248 (DTP/NCI, 2004).
Where “and” joins values, the source holds several entries; their conditions need not be identical. Identical values can stand only once. Inconclusive results and toxic doses are left out. No stated cut-off is given here; in the data, active means T/C of 150% or more; inactive means T/C below 125%.

Tested on: L1210 leukemia ip in BDF1 mice, survival T/C
Test: NCI In Vivo Anticancer Drug Screen. Data for tumor model L1210 Leukemia (intraperitoneal) in B6D2F1 (BDF1) mice
Details: higher = longer survival
In short: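 Tumor cells were implanted, animals were treated, and survival was followed. The result divides the treated measurement by the vehicle-control measurement.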

[1] = endpoint: mean survival time, dose: 25.0 mg/kg/injection, schedule: Q01DX009 (ip), vehicle: saline with Tween-80
[2] = endpoint: mean survival time, dose: 50.0 mg/kg/injection, schedule: Q01DX009 (ip), vehicle: saline with Tween-80
[3] = endpoint: mean survival time, dose: 100.0 mg/kg/injection, schedule: Q04DX003 (ip), vehicle: saline with Tween-80
[4] = endpoint: mean survival time, dose: 100.0 mg/kg/injection, schedule: Q01DX001 (ip), vehicle: saline
[5] = endpoint: mean survival time, dose: 200.0 mg/kg/injection, schedule: Q01DX001 (ip), vehicle: saline
[6] = endpoint: mean survival time, dose: 400.0 mg/kg/injection, schedule: Q01DX001 (ip), vehicle: saline
[7] = endpoint: mean survival time, dose: 100.0 mg/kg/injection, schedule: Q01DX001 (ip), vehicle: Klucel (hydroxypropylcellulose) (HPC)
[8] = endpoint: mean survival time, dose: 100.0 mg/kg/injection, schedule: Q01DX009 (ip), vehicle: Klucel (hydroxypropylcellulose) (HPC)
[9] = endpoint: mean survival time, dose: 200.0 mg/kg/injection, schedule: Q01DX001 (ip), vehicle: Klucel (hydroxypropylcellulose) (HPC)
[10] = endpoint: mean survival time, dose: 200.0 mg/kg/injection, schedule: Q01DX009 (ip), vehicle: Klucel (hydroxypropylcellulose) (HPC)
[11] = endpoint: mean survival time, dose: 400.0 mg/kg/injection, schedule: Q01DX001 (ip), vehicle: Klucel (hydroxypropylcellulose) (HPC)
[12] = endpoint: mean survival time, dose: 400.0 mg/kg/injection, schedule: Q01DX009 (ip), vehicle: Klucel (hydroxypropylcellulose) (HPC)
[13] = endpoint: mean survival time, dose: 100.0 mg/kg/injection, schedule: Q04DX002 (ip), vehicle: Klucel (hydroxypropylcellulose) (HPC)
[14] = endpoint: mean survival time, dose: 200.0 mg/kg/injection, schedule: Q04DX002 (ip), vehicle: Klucel (hydroxypropylcellulose) (HPC)
[15] = endpoint: mean survival time, dose: 400.0 mg/kg/injection, schedule: Q04DX002 (ip), vehicle: Klucel (hydroxypropylcellulose) (HPC)

Measured: T/C

Nc1cc2nc3ccccc3sc-2cc1=O
inactive: endpoint: median survival time, dose: 50.0 mg/kg/injection, schedule: Q01DX001 (ip), vehicle: Klucel (hydroxypropylcellulose) (HPC) 100 % of control | endpoint: median survival time, dose: 50.0 mg/kg/injection, schedule: Q01DX001 (oral), vehicle: Klucel (hydroxypropylcellulose) (HPC) 105 % of control | endpoint: median survival time, dose: 50.0 mg/kg/injection, schedule: Q01DX009 (ip), vehicle: Klucel (hydroxypropylcellulose) (HPC) 102 % of control | endpoint: median survival time, dose: 50.0 mg/kg/injection, schedule: Q01DX009 (oral), vehicle: Klucel (hydroxypropylcellulose) (HPC) 114 % of control | endpoint: median survival time, dose: 50.0 mg/kg/injection, schedule: Q04DX003 (ip), vehicle: Klucel (hydroxypropylcellulose) (HPC) 101 % of control | endpoint: median survival time, dose: 100.0 mg/kg/injection, schedule: Q01DX001 (ip), vehicle: Klucel (hydroxypropylcellulose) (HPC) 93 % of control | endpoint: median survival time, dose: 100.0 mg/kg/injection, schedule: Q01DX001 (oral), vehicle: Klucel (hydroxypropylcellulose) (HPC) 105 % of control | endpoint: median survival time, dose: 100.0 mg/kg/injection, schedule: Q01DX009 (ip), vehicle: Klucel (hydroxypropylcellulose) (HPC) 97 % of control | endpoint: median survival time, dose: 100.0 mg/kg/injection, schedule: Q01DX009 (oral), vehicle: Klucel (hydroxypropylcellulose) (HPC) 114 % of control | endpoint: median survival time, dose: 100.0 mg/kg/injection, schedule: Q04DX003 (ip), vehicle: Klucel (hydroxypropylcellulose) (HPC) 94 % of control | endpoint: median survival time, dose: 200.0 mg/kg/injection, schedule: Q01DX001 (ip), vehicle: Klucel (hydroxypropylcellulose) (HPC) 96 % of control | endpoint: median survival time, dose: 200.0 mg/kg/injection, schedule: Q01DX001 (oral), vehicle: Klucel (hydroxypropylcellulose) (HPC) 106 % of control | endpoint: median survival time, dose: 200.0 mg/kg/injection, schedule: Q01DX009 (ip), vehicle: Klucel (hydroxypropylcellulose) (HPC) 102 % of control | endpoint: median survival time, dose: 200.0 mg/kg/injection, schedule: Q01DX009 (oral), vehicle: Klucel (hydroxypropylcellulose) (HPC) 113 % of control | endpoint: median survival time, dose: 200.0 mg/kg/injection, schedule: Q04DX003 (ip), vehicle: Klucel (hydroxypropylcellulose) (HPC) 101 % of control | endpoint: median survival time, dose: 400.0 mg/kg/injection, schedule: Q01DX001 (ip), vehicle: Klucel (hydroxypropylcellulose) (HPC) 96 % of control | endpoint: median survival time, dose: 400.0 mg/kg/injection, schedule: Q01DX001 (oral), vehicle: Klucel (hydroxypropylcellulose) (HPC) 110 % of control | endpoint: median survival time, dose: 400.0 mg/kg/injection, schedule: Q01DX009 (ip), vehicle: Klucel (hydroxypropylcellulose) (HPC) 97 % of control | endpoint: median survival time, dose: 400.0 mg/kg/injection, schedule: Q01DX009 (oral), vehicle: Klucel (hydroxypropylcellulose) (HPC) 112 % of control | endpoint: median survival time, dose: 400.0 mg/kg/injection, schedule: Q04DX003 (ip), vehicle: Klucel (hydroxypropylcellulose) (HPC) 94 % of control

CN1C2CCC1CC(OC(=O)c1ccc(O)cc1)C2 (configuration not stated)
inactive: endpoint: mean survival time, dose: 9.38 mg/kg/injection, schedule: Q01DX001 (ip), vehicle: saline 94 % of control | endpoint: mean survival time, dose: 18.75 mg/kg/injection, schedule: Q01DX001 (ip), vehicle: saline 102 % of control

CC(=O)N1CCOC12CCN(Cc1ccccc1)CC2
inactive: [1] 92 % of control | [2] 98 % of control | endpoint: mean survival time, dose: 100.0 mg/kg/injection, schedule: Q01DX009 (ip), vehicle: saline with Tween-80 88 % of control | [3] 100 % of control

O=C(Cc1ccc([N+](=O)[O-])cc1)NCCc1ccc2c(c1)OCO2
inactive: [4] 96 % of control | [5] 102 % of control | [6] 100 % of control

COC1OC2COc3ccccc3OC2C(N=C(N)N[N+](=O)[O-])C1O (configuration not stated)
inactive: endpoint: mean survival time, dose: 100.0 mg/kg/injection, schedule: Q01DX009 (ip), vehicle: gum acacia 97 % of control | endpoint: mean survival time, dose: 200.0 mg/kg/injection, schedule: Q01DX009 (ip), vehicle: gum acacia 100 % of control | endpoint: mean survival time, dose: 400.0 mg/kg/injection, schedule: Q01DX009 (ip), vehicle: gum acacia 95 % of control

C=C[N+](C)(C)C
inactive: endpoint: mean survival time, dose: 5.0 mg/kg/injection, schedule: Q01DX001 (ip), vehicle: saline 100 % of control | endpoint: mean survival time, dose: 10.0 mg/kg/injection, schedule: Q01DX001 (ip), vehicle: saline 107 % of control | endpoint: mean survival time, dose: 20.0 mg/kg/injection, schedule: Q01DX001 (ip), vehicle: saline 103 % of control | endpoint: mean survival time, dose: 40.0 mg/kg/injection, schedule: Q01DX001 (ip), vehicle: saline 103 % of control

C=CCCCCCCCCC(=O)NCCCC(OCC)OCC
inactive: endpoint: mean survival time, dose: 100.0 mg/kg/injection, schedule: Q04DX003 (ip), vehicle: saline 106 % of control | endpoint: mean survival time, dose: 200.0 mg/kg/injection, schedule: Q04DX003 (ip), vehicle: saline 95 % of control | endpoint: mean survival time, dose: 400.0 mg/kg/injection, schedule: Q04DX003 (ip), vehicle: saline 95 % of control

CC(=O)N1C(=O)NC(=O)C1(CSCc1ccccc1)CSCc1ccccc1
inactive: endpoint: mean survival time, dose: 50.0 mg/kg/injection, schedule: Q01DX005 (ip), vehicle: saline 104 % of control | endpoint: mean survival time, dose: 100.0 mg/kg/injection, schedule: Q01DX005 (ip), vehicle: saline 98 % of control | endpoint: mean survival time, dose: 200.0 mg/kg/injection, schedule: Q01DX005 (ip), vehicle: saline 110 % of control | endpoint: mean survival time, dose: 400.0 mg/kg/injection, schedule: Q01DX005 (ip), vehicle: saline 94 % of control

CC(=O)Oc1c2c(c(OC(C)=O)c3c1C(=O)c1ccccc1C3=O)CCCC2
inactive: [4] 98 % of control | [5] 92 % of control | [6] 98 % of control

C/C(=N\NC(N)=O)C1CCC(c2ccccc2)CC1 (configuration not stated)
inactive: [7] 103 % of control | [8] 90 % of control | [9] 96 % of control | [10] 86 % of control | [11] 92 % of control | [12] 91 % of control

CC(C)(C)[CH2][Sn]([CH2]C(C)(C)C)([CH2]C(C)(C)C)[c]1ccc(-c2ccccc2)cc1
inactive: [13] 111 % of control | [14] 92 % of control | [15] 92 % of control

O=C(Nc1ccc(S(=O)(=O)c2ccc(NC(=O)C(F)(F)Cl)cc2)cc1)C(F)(F)Cl
inactive: endpoint: mean survival time, dose: 100.0 mg/kg/injection, schedule: Q01DX001 (ip), vehicle: carboxymethylcellulose (CMC) 104 % of control | endpoint: mean survival time, dose: 200.0 mg/kg/injection, schedule: Q01DX001 (ip), vehicle: carboxymethylcellulose (CMC) 101 % of control | endpoint: mean survival time, dose: 400.0 mg/kg/injection, schedule: Q01DX001 (ip), vehicle: carboxymethylcellulose (CMC) 103 % of control

Clc1nc(SC2=NCCN2)c2[nH]cnc2n1
inactive: endpoint: mean survival time, dose: 10.0 mg/kg/injection, schedule: Q01DX009 (ip), vehicle: saline with Tween-80 108 % of control | endpoint: mean survival time, dose: 12.5 mg/kg/injection, schedule: Q01DX009 (ip), vehicle: saline with Tween-80 102 % of control | endpoint: mean survival time, dose: 12.5 mg/kg/injection, schedule: Q04DX003 (ip), vehicle: saline with Tween-80 106 % of control | endpoint: mean survival time, dose: 20.0 mg/kg/injection, schedule: Q01DX009 (ip), vehicle: saline with Tween-80 101 % of control | [1] 104 % of control | endpoint: mean survival time, dose: 25.0 mg/kg/injection, schedule: Q04DX003 (ip), vehicle: saline with Tween-80 106 % of control | endpoint: mean survival time, dose: 40.0 mg/kg/injection, schedule: Q01DX009 (ip), vehicle: saline with Tween-80 100 % of control | [2] 113 % of control | endpoint: mean survival time, dose: 50.0 mg/kg/injection, schedule: Q04DX003 (ip), vehicle: saline with Tween-80 107 % of control

CCC(=Nc1ccccc1)Nc1ccccc1
inactive: [13] 106 % of control | [14] 106 % of control | [15] 109 % of control

Cc1ncc(C(O)c2ccccc2)n1Cc1ccccc1 (configuration not stated)
inactive: [7] 94 % of control | [8] 93 % of control and 107 % of control | endpoint: mean survival time, dose: 100.0 mg/kg/injection, schedule: Q04DX003 (ip), vehicle: Klucel (hydroxypropylcellulose) (HPC) 106 % of control | [9] 100 % of control | [10] 93 % of control and 103 % of control | endpoint: mean survival time, dose: 200.0 mg/kg/injection, schedule: Q04DX003 (ip), vehicle: Klucel (hydroxypropylcellulose) (HPC) 97 % of control | [11] 98 % of control | [12] 104 % of control and 89 % of control | endpoint: mean survival time, dose: 400.0 mg/kg/injection, schedule: Q04DX003 (ip), vehicle: Klucel (hydroxypropylcellulose) (HPC) 99 % of control

CCOC1OC(C(O)CO)C(O)C1O (configuration not stated)
inactive: [3] 98 % of control | endpoint: mean survival time, dose: 200.0 mg/kg/injection, schedule: Q04DX003 (ip), vehicle: saline with Tween-80 98 % of control | endpoint: mean survival time, dose: 400.0 mg/kg/injection, schedule: Q04DX003 (ip), vehicle: saline with Tween-80 96 % of control
